Measured values reported in patent EP0049797A2, “Anthelminticum containing 2-(2,3-dimethyl-phenoxy-methyl)-2-imidazoline” (BAYER AG, priority 1980, dated 1982).
Like-named read-outs stand apart in the source and are kept apart here.

Assays:
[1] = system: Haemonchus contortus normaler Stamm; experiment: Stomach and intestinal worm test in sheep (faecal egg count reduction), normal strain; type: in vivo, Schaf; settings: read-out: Dosis effectiva minima (Red. 90 % in mg/kg)
Text: (§1) Magen- und Darmwurmtest/Schaf
(§2) Experimentell mit Haemonchus contortus infizierte Schafe wurden nach Ablauf der Präpatenzzeit der Parasiten behandelt. Die Wirkstoffmenge wurde als reiner Wirkstoff in Gelatinekapseln oral appliziert oder in einem geeigneten Lösungsmittel gelöst und subcutan oder dermal appliziert.
(§3) Der Wirkungsgrad wird dadurch bestimmt, daß man die mit dem Kot ausgeschiedenen Wurmeier vor und nach der Be-handlung quantitativ auszählt.
(§4) Ein völliges Sistieren der Eiausscheidung nach der Behandlung bedeutet, daß die Würmer abgetrieben wurden oder so geschädigt sind, daß sie keine Eier mehr produzieren können (Dosis effectiva). Geprüfte Wirkstoffe und wirksame Dosierungen (dosis effectiva minima) sind aus der nachfolgenden Tabelle ersichtlich.

[2] = system: Haemonchus contortus gegen Benz-imidazole resistenter Stamm; experiment: Stomach and intestinal worm test in sheep (faecal egg count reduction), benzimidazole-resistant strain; type: in vivo, Schaf; settings: read-out: Dosis effectiva minima (Red. 90 % in mg/kg), per os, experimentally infected sheep
Text: as §1, §2, §3, §4

[3] = per os, experimentally infected sheep, normaler Stamm

`CCCSc1ccc2nc(NC(=O)OC)[nH]c2c1` [Albendazol] was tested. Which minimal effective dose [1] did it give?
Its minimal effective dose is 0.5 mg/kg.

What about the minimal effective dose [2] of the same compound?
The minimal effective dose was 5 mg/kg.

What does the source list for `c1ccc2[nH]c(-c3cscn3)nc2c1` [Thiabenzol]?
minimal effective dose [1, 3]: 25 mg/kg; minimal effective dose [2]: 250 mg/kg

For `CCCCc1ccc2[nH]c(NC(=O)OC)nc2c1` [Parbendazol], which minimal effective dose [1] is on record?
Its minimal effective dose is 1 mg/kg.

What about the minimal effective dose [2] of the same compound?
Its minimal effective dose is 10 mg/kg.

`Cc1cccc(OCC2=NCCN2)c1C` [2-(2,3-Dimethyl-phenoxymethyl)-2-imidazolin] was tested. Which minimal effective dose ([1]; dermal, experimentally infected sheep, normaler Stamm) did it give?
Its minimal effective dose is 1 mg/kg.

What about the minimal effective dose [1, 3] of the same compound?
The minimal effective dose was 0.5 mg/kg.

What about the minimal effective dose ([1]; subcutan, experimentally infected sheep, normaler Stamm) of the same compound?
The minimal effective dose was 0.5 mg/kg.
